Entries after “also recorded” stand apart in the source; their conditions may differ.
What was measured:
[1] = test system: Arabidopsis seedlings; experiment: Root growth and plant growth inhibition of Arabidopsis seedlings; assay type: in vivo
Protocol: FIG. 6A-FIG. 6C. LC66C6 inhibits plant growth. (A) Photographs showing the effect of ABA, Pyrabactin and LC66C6 on the wild type, abi1-1 and PYR/PYL quadruple mutant Arabidopsis genotypes. (B) Root growth inhibition and (C) plant growth inhibition by ABA, LC66C6 and pyrabactin. Two day old seedlings were transferred on ½×MS plate containing chemicals and phenotypes scored or photographed after a 5-day incubation on test compounds.

[2] = test system: aba2 mutant plants; experiment: Rescue of growth defects of ABA-deficient mutant aba2; assay type: in vivo, Arabidopsis; conditions: 25 μM sprayed two times a day for two weeks; versus DMSO
Protocol: FIG. 16A-FIG. 16B. Application of LC66C6 can rescue growth defects observed in the ABA-deficient mutant aba2. Chemical solution (25 μM) was sprayed on 14-day-plants two times per day for 2 weeks. The image (A) and fresh weight (B) were obtained from 4-week plants.
In this example, 14-day old wild-type and aba2 mutant plants were sprayed with a solution containing 25 μM of agonist two times a day for two weeks. Images and fresh weight were obtained from 4 week old plants.

[3] = test system: Arabidopsis seeds; experiment: Arabidopsis germination inhibition, wild type and mutants, Example 2; assay type: in vivo
Protocol: FIG. 5A-FIG. 5D. Novel ABA agonists inhibit germination of Arabidopsis seeds more strongly than pyrabactin. (A) and (B) Comparison of seed germination inhibition by ABA agonists. (C) and (D) the effects of ABA and LC66C6 (also called quinabactin) on Arabidopsis ABA signaling- and biosynthesis-deficient mutants on germination (C) and seedling establishment (D). Seeds were sown on ½×MS agar plate containing chemicals, and were stored at 4° C. for 4 days, then transferred at 22±2° C. Photographs (A and C) and germination (B) or green cotyledon (D) scores were assessed after a 4-day incubation under continuous illumination.
As a third screening approach, the Life Chemicals library was also screened for Arabidopsis germination inhibitors in solidified agar medium containing 0.5×MS salts, 0.5% sucrose and 25 μM test compound. Hits from the germination assay were subsequently tested in yeast two hybrid assays. Hit compounds were restocked from their original vendors and used in secondary screens and compound characterization. […]
For Arabidopsis germination and hypocotyl growth inhibition analysis, seeds after-ripened about 4 weeks were surface-sterilized with a solution containing 5% NaClO and 0.05% Tween-20 for 10 minutes, and rinsed with water four times. […] Germination was determined after a 4-day incubation, whereas hypocotyl growth was photographed after 6-day incubation.

[4] = test system: MAPKKK18 promoter::GUS reporter; experiment: MAPKKK18 promoter::GUS ABA-responsive reporter gene assay; assay type: in vivo, Arabidopsis; conditions: guard cells, vascular tissues of leaves and roots, radicle tips of imbibed seeds
Protocol: Existing ABA-responsive promoter-GUS fusions are, in our experience, not ideal due to either high background levels or relatively low induction levels in response to ABA. […] We therefore characterized the effects of agonists on MAPKKK18 promoter::GUS reporter transgenic plants. GUS staining was performed in a reaction buffer of the following composition: 50 mM sodium phosphate buffer pH 7.0, 0.05% Tween-20, 2.5 mM potassium ferrocyanide, 2.5 mM potassium ferricyanide, 1 mM X-gluc. The reaction buffer was vacuum infiltrated into test samples for 10 min two times and then incubated at 37° C. for 5 h. The reaction was stopped by washing the samples with 70% ethanol, and chlorophyll pigments bleached by incubation at 65° C.

[5] = test system: GmNAC4 and GmbZIP1; experiment: Quantitative RT-PCR of ABA-responsive genes in soybean; assay type: in vivo
Source text: (§1) FIG. 13A-FIG. 13E. LC66C6 modulates ABA responses in diverse species. Germination inhibition (A) and transpirational water loss in detached leaves 2-hours after detachment (B) in response to compounds shown. The expression of ABA-responsive marker genes in Soybean (C), Barley (D) and Maize (E) after application of chemicals. D, P, L and A indicate DMSO, pyrabactin, LC66C6 and (+)-ABA, respectively.
(§2) Total RNA was isolated using Plant RNA purification reagent (Invitrogen, USA) according to the manufacturer's instructions. cDNA was synthesized from 1 μg of total RNA using the QantiTec reverse transcription kit (Qiagen, USA). Real-time PCR using Maxima® SYBR Green/Fluorescein qPCR Master Mix (Fermentas) was performed with the iQ5 real-time PCR detection system (Bio-Rad, Hercules, Calif.). The relative amounts of target mRNAs were determined using the relative standard curve method and were normalized by relative amount of internal control mRNA. Biological triplicate experiments were performed.

[6] = test system: ZmRab17 and ZmLEA; experiment: Quantitative RT-PCR of ABA-responsive genes in maize; assay type: in vivo
Source text: as §1, §2

[7] = test system: Arabidopsis plants; experiment: Transpirational water loss of detached leaves; assay type: in vivo; conditions: 25 μM spray
Protocol: Physiological assays were performed on Arabidopsis plants grown at 22±2° C. and relative humidity (RH) 45±10% under a 16/8-h light/dark cycle. For transpirational water loss analyses in Arabidopsis, plants were pre-treated by aerosol spray of 4 ml solution containing 25 μM compound and 0.05% Tween-20. 12 4-week old plants were sprayed per compound or control analyzed. After overnight pre-treatment with compounds, the aerial portions were detached from roots, and their fresh weight measured at 20 min intervals over a 2 hour time period. To measure stomatal aperture, plants were pre-treated with compounds as described above, covered with plastic lids to maintain high RH and after overnight pre-treatment leaf epidermal impressions were obtained using Suzuki's Universal Micro-Printing (SUMP) method using SUMP impression solution with SUMP B plates (SUMP Laboratory). The leaf impressions were analyzed by light microscopy and stomatal apertures were determined from the pore widths using ImageJ 1.43v software (National Institutes of Health, USA). […] Pots were covered in Parafilm to so that the water loss measured was transpiration mediated. Soil water content % was determined by measuring pot weight and computed by removing dry soil weight from total weight.

CCCN1C(=O)CCc2cc(NS(=O)(=O)Cc3ccc(C)cc3)ccc21 [LC66C6]
Inhibition of plant growth ([1]; wild-type and mutant plants): significantly greater than the inhibition by pyrabactin, and comparable to that of (+)-ABA
Inhibition of root elongation ([1]; wild-type, abi1 and quadruple mutant, all concentrations tested): comparable to or slightly more effective than (+)-ABA
Size of aba2 mutant plants [2]: significantly increased the size of the mutant plants
Inhibition of germination of wild-type seeds [3]: nearly as effective, on a per mole basis, at inhibiting germination as (+)-ABA; also recorded: one of the most effective agonists, after (+)-ABA, at inhibiting germination of wild-type seeds
Tissue pattern of reporter gene expression [4]: induces expression of reporter genes in the same tissues as (+)-ABA
Expression of ABA-responsive genes GmNAC4 and GmbZIP1 [5]: strongly induces
Expression of ABA-responsive genes ZmRab17 and ZmLEA [6]: weakly induces
Transpirational water loss in detached leaves ([7]; abi1-1 mutant): did not reduce transpirational water loss
Transpirational water loss in detached leaves ([7]; wild-type and aba2 mutant): reduced the amount of transpirational water loss

— patent publication US20160280651A1, “COMPOUNDS THAT INDUCE ABA RESPONSES” (THE REGENTS OF THE UNIVERSITY OF CALIFORNIA, priority 2013, published 2016)
